The values that follow are results of earlier work, collected in patent US6372197B1, “Methods and compositions using norastemizole in combination with leukotriene inhibitors” (Sepracor Inc., priority 1998, dated 2002).

The structures appear in SMILES notation. Where two headings read alike, the source gives them in different places.

Data set [1] deals with leukotriene (LTH4, LTC4, LTD4, and LTE4) formation. The note with it: in vitro.
A further data set relates to LTB4 formation. The conditions noted are these: ex vivo, several species.
Data set [2] deals with leukotriene-dependent smooth muscle contractions. The note with it: in vitro, guinea pig airways.
The test system is the same in data set [3]. The conditions noted are these: in vitro, human airways.
The conditions of data set [4]: 373 patients.
The conditions of data set [5]: in some patients.
For data set [6] the following is noted: in vivo.
For data set [7], the system named is contractile activity of three leukotrienes. The note with it: in vitro, conducting airway smooth muscle from laboratory animals.
For data set [8] the test system is unchanged. The conditions noted are these: in vitro, conducting airway smooth muscle from humans.
The subject of data set [9] is LTD4-induced increases in cutaneous vascular permeability. The note with it: in vivo.
Data set [10] relates to LTD4-induced influx of eosinophils. The conditions noted are these: in vivo.

Regarding `CC(c1cc2ccccc2s1)N(O)C(N)=O` (racemic) [Zileuton, (±)-1-(1-Benso[b]thien-2-ylethyl)-1-hydroxyurea], the “inhibition of leukotriene (LTH4, LTC4, LTD4, and LTE4) formation” value in data set [1] is given as “inhibit”. The “inhibition of LTB4 formation” value with LTB4 formation is “inhibitor”. Moreover, the “inhibition of leukotriene-dependent smooth muscle contractions” value in data set [2] and in data set [3] was “inhibits” in each case. The efficacy result was “failed to do so” in data set [4] (400 mg) and “required to provide efficacy” in data set [4] (600 mg four times daily). In addition, the adverse effects reported result in [5] is “headache, pain, asthenia, dyspepsia, nausea, and myalgia”.
`COc1ccc(CCN2CCC(Nc3nc4ccccc4n3Cc3ccc(F)cc3)CC2)cc1` [Astemizole]: in [6], the absorption result is recorded as “well absorbed” and the metabolism result is recorded as “extensively metabolized”.
Take `COc1cc(C(=O)NS(=O)(=O)c2ccccc2C)ccc1Cc1cn(C)c2ccc(NC(=O)OC3CCCC3)cc12` [Zafirlukast, 4-(5-cyclopentyloxy-carbonylamino-1-methyl-indol-8-ylmethyl)-3-methoxy-N-o-tolylsulfonylbenzamide]: the adverse effects reported entry in data set [5] is “headache, infection, nausea, diarrhea, pain, asthenia, abdominal pain, dizziness, myalgia, fever, vomiting, SGPT elevation, and dyspepsia”. Also, the “antagonism of contractile activity of three leukotrienes” value in data set [7] and in data set [8] was “antagonized” throughout. In addition, in [9], the “intradermal LTD4-induced increases in cutaneous vascular permeability” value is given as “prevented”. In data set [10], the “inhaled LTD4-induced influx of eosinophils into animal lungs” value is recorded as “inhibited”.
